Experimental data reported in patent US20170001988A1, “PIPERIDINE AND PIPERAZINE DERIVATIVES AND THEIR USE IN TREATING VIRAL INFECTIONS AND CANCER” (THE UNITED STATES OF AMERICA, AS REPRESENTED BY THE …, priority 2013, published 2017).
Like-named read-outs stand apart in the source and are kept apart here.

Legend:
Huh7.5.1 cells = assay: in vitro
From the text: (§1) EC50 was generated using the HCV-Luc infection assay and IC50 using the ATPLite assay.
(§2) EC50 was generated using the HCV-Luc infection assay and TC50 using the ATPLite assay.
(§3) The cytotoxicity of the compounds was further evaluated in HepG2 cells and primary human hepatocytes.

HCV-Luc = HCV-Luc infection assay; format: cell-based; details: for EC50: Hepatitis C virus
in vitro = details: human
From the text: as §1, §2, §3

Row | Compound | CC50 (Huh7.5.1 cells; human) [µM] | EC50 (HCV-Luc; Table 3, read-out: EC50) [µM] | Selective Index (HCV-Luc; Table 3) | further results
1 | Clc1ccc([C@H](c2ccccc2)N2CCN(C3CCCCC3)CC2)cc1 [Cyclohexyl (S), (S)-1-((4-Chlorophenyl)(phenyl)methyl)-4-cyclohexylpiperazine] | 12.3 ± 0.3 | 0.177 ± 0.037 | 69 | –
2 | CCN1CCC(N(CCc2ccccc2)Cc2ccccc2)CC1 [Et, N-Benzyl-1-ethyl-N-phenethylpiperidin-4-amine] | – | – | – | CC50 (in vitro): 35.3 µM; EC50 (HCV-Luc; Table 6, read-out: EC50): 0.039 µM
3 | [2H]C([2H])([2H])CN1CCC(N(CCc2ccccc2)Cc2ccccc2)CC1 [CD3CH2—, N-Benzyl-1-ethyl(2,2,2-d3)-N-phenethylpiperidin-4-amine] | – | – | – | CC50 (in vitro): 50.8 µM; EC50 (HCV-Luc; Table 6, read-out: EC50): 2.37 µM
4 | COc1ccccc1CN1CCC(N(CCc2ccccc2)Cc2ccccc2)CC1 [2-Methoxybenzyl, N-Benzyl-1-(2-methoxybenzyl)-N-phenethylpiperidin-4-amine] | – | – | – | CC50 (in vitro): 15.2 µM; EC50 (HCV-Luc): 0.64 µM
5 | CC(C)N1CCN([C@@H](c2ccccc2)c2ccc(Cl)cc2)CC1 [i-Pr (S), (S)-1-((4-Chlorophenyl)(phenyl)methyl)-4-isopropylpiperazine] | 32.4 ± 3.8 | 0.013 ± 0.004 | 2492 | –
6 | Clc1ccc([C@H](c2ccccc2)N2CCN(C3CCCC3)CC2)cc1 [Cyclopentyl (S), (S)-1-((4-Chlorophenyl)(phenyl)methyl)-4-cyclopentylpiperazine] | 30.4 ± 2.8 | 0.019 ± 0.006 | 1600 | –
7 | CCCCN1CCN([C@H](c2ccccc2)c2ccc(Cl)cc2)CC1 [n-Bu (R), (R)-1-Butyl-4-((4-chlorophenyl)(phenyl)methyl)piperazine] | 40.8 ± 0.4 | 0.195 ± 0.084 | 309 | –
8 | CCN1CCN([C@H](c2ccccc2)c2ccc(Cl)cc2)CC1 [Et (R), (R)-1-((4-Chlorophenyl)(phenyl)methyl)-4-ethylpiperazine] | 37.9 ± 3.3 | – | – | –
9 | c1ccc(CCN(Cc2ccccc2)C2CCN(C3CCCC3)CC2)cc1 [Cyclopentyl, N-Benzyl-1-cyclopentyl-N-phenethylpiperidin-4-amine] | – | – | – | CC50 (in vitro): 15 µM; EC50 (HCV-Luc; Table 6, read-out: EC50): 0.48 µM
10 | CN1CCC(N(c2ccccc2)c2ccc(OC(C)(C)C)cc2)CC1 | 78.7 ± 0.6 | – | – | EC50 (HCV-Luc; Table 5, read-out: EC50): 0.354 ± 0.097 µM; Selective Index (HCV-Luc; Table 5): 222
11 | Clc1ccc([C@@H](c2ccccc2)N2CCNCC2)cc1 [H (R), (R)-1-((4-Chlorophenyl)(phenyl)methyl)piperazine] | 12.5 ± 1.4 | 0.032 ± 0.022 | 391 | –
12 | CCCN1CCN([C@@H](c2ccccc2)c2ccc(Cl)cc2)CC1 [n-Pr (S), (S)-1-((4-Chlorophenyl)(phenyl)methyl)-4-propylpiperazine] | 39.7 ± 0.9 | 0.032 ± 0.018 | 1241 | –
13 | Cc1ccc(CN2CCC(N(CCc3ccccc3)Cc3ccccc3)CC2)cc1 [4-Methylbenzyl, N-Benzyl-1-(4-methylbenzyl)-N-phenethylpiperidin-4-amine] | – | – | – | CC50 (in vitro): 40.3 µM; EC50 (HCV-Luc; Table 6, read-out: EC50): 0.74 µM
14 | FC(F)(F)CN1CCN([C@@H](c2ccccc2)c2ccc(Cl)cc2)CC1 [CF3CH2 (S), (S)-1-((4-Chlorophenyl)(phenyl)methyl)-4-(2,2,2-trifluoroethyl)piperazine] | > 100 | > 31.6 | – | –
15 | Fc1ccc(CN2CCC(N(CCc3ccccc3)Cc3ccccc3)CC2)cc1 [4-Fluorobenzyl, N-Benzyl-1-(4-fluorobenzyl)-N-phenethylpiperidin-4-amine] | – | – | – | CC50 (in vitro): 56.3 µM; EC50 (HCV-Luc): 9.6 µM
16 | CC(=O)N1CCN([C@@H](c2ccccc2)c2ccc(Cl)cc2)CC1 [Acetyl (S), (S)-1-(4-((4-Chlorophenyl)(phenyl)methyl)piperazin-1-yl)ethanone] | 91.3 ± 1 | 22 ± 3.2 | 4 | –
17 | FC(F)(F)CN1CCN([C@H](c2ccccc2)c2ccc(Cl)cc2)CC1 [CF3CH2 (R), (R)-1-((4-Chlorophenyl)(phenyl)methyl)-4-(2,2,2-trifluoroethyl)piperazine] | > 100 | > 31.6 | – | –
18 | CC(C)CN1CCN([C@H](c2ccccc2)c2ccc(Cl)cc2)CC1 [2-methyl-1-propyl (R), (R)-1-((4-Chlorophenyl)(phenyl)methyl)-4-isobutylpiperazine] | 58.2 ± 7.2 | 0.232 ± 0.061 | 251 | –
19 | c1ccc(CCN(Cc2ccccc2)C2CCN(Cc3ccccc3)CC2)cc1 [Benzyl, N,1-dibenzyl-N-phenethylpiperidin-4-amine] | – | – | – | CC50 (in vitro): 30.9 µM; EC50 (HCV-Luc; Table 6, read-out: EC50): 0.32 µM
20 | CC(C)CN1CCC(N(CCc2ccccc2)Cc2ccccc2)CC1 [Isobutyl, N-Benzyl-1-isobutyl-N-phenethylpiperidin-4-amine] | – | – | – | CC50 (in vitro): 37.6 µM; EC50 (HCV-Luc; Table 6, read-out: EC50): 4.76 µM
21 | CC(=O)NCCOCCOCCOCCOCCN1CCN(C(c2ccccc2)c2ccc(Cl)cc2)CC1 (racemic) [(CH2CH2O)4CH2CH2NHC(═O)Me (R,S), N-(14-(4-((4-Chlorophenyl)(phenyl)methyl)piperazin-1-yl)-3,6,9,12-tetraoxatetradecyl)acetamide] | > 100 | 0.17 ± 0.022 | >588 | –
22 | O=C1c2ccccc2C(=O)N1CCOCCN1CCN(C(c2ccccc2)c2ccc(Cl)cc2)CC1 (centres unmarked) [2-(2-(2-(4-((4-Chlorophenyl)(phenyl)methyl)piperazin-1-yl)ethoxy)ethyl)isoindoline-1,3-dione] | > 100 | 1.54 ± 0.57 | >65 | –

Row | Compound | CC50 (Huh7.5.1 cells; human) [µM] | EC50 (HCV-Luc; Table 3, read-out: EC50) [µM] | Selective Index (HCV-Luc; Table 3) | further results
23 | NC(=O)COCCN1CCN(C(c2ccccc2)c2ccc(Cl)cc2)CC1 (racemic) [CH2CH2OCH2CONH2 (R,S), 2-(2-(4-((4-Chlorophenyl)(phenyl)methyl)piperazin-1-yl)ethoxy)acetamide] | > 100 | 0.103 ± 0.052 | >910 | –
24 | CN1CCC(N(c2ccccc2)c2ccccc2)CC1 | 56.8 ± 8.2 | – | – | EC50 (HCV-Luc; Table 5, read-out: EC50): 2.72 ± 1.13 µM; Selective Index (HCV-Luc; Table 5): 21
25 | OCCOCCN1CCN(C(c2ccc(Cl)cc2)c2ccc(Cl)cc2)CC1 [Cl, Cl, CH2CH2OCH2CH2OH, 2-(2-(4-(bis(4-Chlorophenyl)methyl)piperazin-1-yl)ethoxy)ethanol] | – | – | – | EC50 (HCV-Luc): 0.0055 ± 0.0022 µM
26 | c1ccc(C(c2ccccc2)c2ccncc2)cc1 | 65.1 ± 2.1 | – | – | EC50 (HCV-Luc; Table 5, read-out: EC50): > 31.5 µM; Selective Index (HCV-Luc; Table 5): <2
27 | CCCCN1CCN([C@@H](c2ccccc2)c2ccc(Cl)cc2)CC1 [n-Bu (S), (S)-1-Butyl-4-((4-chlorophenyl)(phenyl)methyl)piperazine] | 31.1 ± 4.2 | 0.042 ± 0.023 | 740 | –
28 | CC(C)(C)OC(=O)NCCOCCOCCOCCOCCN1CCN(C(c2ccccc2)c2ccc(Cl)cc2)CC1 (racemic) [(CH2CH2O)4(CH2)2NHC(═O)Ot-Bu (R,S), tert-Butyl (14-(4-((4-chlorophenyl)(phenyl)methyl)piperazin-1-yl)-3,6,9,12-tetraoxatetradecyl)carbamate] | 19 ± 4 | 0.199 ± 0.03 | 95 | –
29 | [2H]C([2H])([2H])N1CCN([C@H](c2ccccc2)c2ccc(Cl)cc2)CC1 [CD3 (R), (R)-1-((4-Chlorophenyl)(phenyl)methyl)-4-methyl(d3)piperazine] | 46.7 ± 0.4 | 0.04 ± 0.017 | – | –
30 | Clc1ccc(C(c2ccc(Cl)cc2)N2CCCCC2)cc1 | 69 ± 0.9 | – | – | EC50 (HCV-Luc; Table 5, read-out: EC50): 17.4 ± 2.8 µM; Selective Index (HCV-Luc; Table 5): 4
31 | c1ccc(C(c2ccccc2)C2CCNCC2)cc1 | – | – | – | CC50 (Huh7.5.1 cells; Table 5): 32.5 ± 0.1 µM; EC50 (HCV-Luc; Table 5, read-out: EC50): 0.072 ± 0.002 µM; Selective Index (HCV-Luc; Table 5): 451
32 | [2H]C([2H])([2H])N1CCN([C@@H](c2ccccc2)c2ccc(Cl)cc2)CC1 [CD3 (S), (S)-1-((4-Chlorophenyl)(phenyl)methyl)-4-methyl(d3)piperazine] | 77.9 ± 3.1 | 0.063 ± 0.025 | – | –
33 | O=C(O)COCCN1CCN(C(c2ccccc2)c2ccc(Cl)cc2)CC1 (racemic) [CH2CH2OCH2COOH (R,S), 2-(2-(4-((4-Chlorophenyl)(phenyl)methyl)piperazin-1-yl)ethoxy) acetic acid] | – | > 31.6 | – | –
34 | Clc1ccc([C@H](c2ccccc2)N2CCNCC2)cc1 [H (S), (S)-1-((4-Chlorophenyl)(phenyl)methyl)piperazine] | 9.31 ± 0.04 | 0.034 ± 0.012 | 0274 | –
35 | [2H]C([2H])([2H])CN1CCN([C@H](c2ccccc2)c2ccc(Cl)cc2)CC1 [CD3CH2 (R), (R)-1-((4-Chlorophenyl)(phenyl)methyl)-4-ethyl(2,2,2-d3)piperazine] | 81.5 ± 0.5 | – | – | –
36 | Clc1ccc(C(c2ccc(Cl)cc2)N2CCOCC2)cc1 | 62.1 ± 2.8 | – | – | EC50 (HCV-Luc; Table 5, read-out: EC50): 29.7 ± 0.1 µM; Selective Index (HCV-Luc; Table 5): 2
37 | COc1ccc(CN2CCN([C@@H](c3ccccc3)c3ccc(Cl)cc3)CC2)c(OC)c1 [2-4-dimethoxybenzyl (S), (S)-1-((4-Chlorophenyl)(phenyl)methyl)-4-(2,4-dimethoxybenzyl)piperazine] | 38.4 ± 4.2 | 0.456 ± 0.235 | 84 | –
38 | CCN1CCN(C2c3ccccc3-c3ccc(Br)cc32)CC1 (centres unmarked) | 53.1 ± 1.3 | – | – | EC50 (HCV-Luc; Table 5, read-out: EC50): 1.68 ± 0.45 µM; Selective Index (HCV-Luc; Table 5): 32
39 | CN1CCCN(C(c2ccccc2)c2ccc(Cl)cc2)CC1 (centres unmarked) | – | – | – | CC50 (Huh7.5.1 cells; Table 5): 12.8 ± 0.1 µM; EC50 (HCV-Luc; Table 5, read-out: EC50): 0.057 ± 0.008 µM; Selective Index (HCV-Luc; Table 5): 225
40 | CC(C)CN1CCN([C@@H](c2ccccc2)c2ccc(Cl)cc2)CC1 [2-methyl-1-propyl (S), (S)-1-((4-Chlorophenyl)(phenyl)methyl)-4-isobutylpiperazine] | 51.7 ± 1.4 | 0.102 ± 0.018 | 507 | –
41 | CCCN1CCN([C@H](c2ccccc2)c2ccc(Cl)cc2)CC1 [n-Pr (R), (R)-1-((4-Chlorophenyl)(phenyl)methyl)-4-propylpiperazine] | 48.5 ± 1.1 | 0.024 ± 0.005 | 2021 | –
42 | [2H]C([2H])([2H])CN1CCN([C@@H](c2ccccc2)c2ccc(Cl)cc2)CC1 [CD3CH2 (S), (S)-1-((4-Chlorophenyl)(phenyl)methyl)-4-ethyl(2,2,2-d3)piperazine] | 71.3 ± 11.4 | – | – | –
43 | NCCOCCN1CCN(C(c2ccccc2)c2ccc(Cl)cc2)CC1 (racemic) [CH2CH2OCH2CH2NH2 (R,S), 2-(2-(4-((4-Chlorophenyl)(phenyl)methyl)piperazin-1-yl)ethoxy)ethanamine] | 8.18 | 0.0048 ± 0.0011 | 1704 | –
